# System: not listed separately
# Experiment: Lipophilicity, logD of compound at pH 7.4 under shaking condition by HPLC analysis
# Type: physicochemical
# Details: buffer
row,logD,Molecule
1,1.75,[N-]=[N+]=Nc1ccc(C(=O)N[C@@H](CCCCNC(=O)CCCc2ccc(I)cc2)C(=O)O)cc1
2,3.13,[N-]=[N+]=Nc1ccc(C(=O)N[C@@H](CCCCNC(=O)CCCc2ccc(I)cc2)C(N)=O)cc1

# Biological target: Somatostatin receptor type 2 (Mus musculus) (UniProt P30875)
# Experiment: Binding affinity to mouse SST2 expressed in mouse pheochromocytoma cells assessed as maximum binding capacity for 1 hr by Nanodrop spectrophotometric analysis
# Type: cell-based
# Details: Pheochromocytoma cell
# Sequence of Somatostatin receptor type 2 (Mus musculus) (P30875 whole entry): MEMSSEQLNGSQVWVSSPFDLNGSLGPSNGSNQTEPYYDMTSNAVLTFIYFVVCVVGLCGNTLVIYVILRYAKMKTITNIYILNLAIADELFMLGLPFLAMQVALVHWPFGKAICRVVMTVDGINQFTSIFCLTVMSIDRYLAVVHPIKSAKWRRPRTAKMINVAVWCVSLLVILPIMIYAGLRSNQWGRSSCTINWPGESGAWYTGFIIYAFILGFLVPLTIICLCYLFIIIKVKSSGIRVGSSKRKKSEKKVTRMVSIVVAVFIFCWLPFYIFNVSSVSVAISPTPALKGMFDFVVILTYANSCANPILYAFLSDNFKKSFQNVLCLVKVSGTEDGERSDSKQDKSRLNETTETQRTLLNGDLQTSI
row,Bmax [fmol/mg],Molecule
1,383,[64Cu]Cu-NODAGA-TATE
2,779,[64Cu]Cu-DOTA-TATE

# Biological target: T1, Albumin (Homo sapiens, UniProt P02768)
# T1 sequence (P02768 whole entry): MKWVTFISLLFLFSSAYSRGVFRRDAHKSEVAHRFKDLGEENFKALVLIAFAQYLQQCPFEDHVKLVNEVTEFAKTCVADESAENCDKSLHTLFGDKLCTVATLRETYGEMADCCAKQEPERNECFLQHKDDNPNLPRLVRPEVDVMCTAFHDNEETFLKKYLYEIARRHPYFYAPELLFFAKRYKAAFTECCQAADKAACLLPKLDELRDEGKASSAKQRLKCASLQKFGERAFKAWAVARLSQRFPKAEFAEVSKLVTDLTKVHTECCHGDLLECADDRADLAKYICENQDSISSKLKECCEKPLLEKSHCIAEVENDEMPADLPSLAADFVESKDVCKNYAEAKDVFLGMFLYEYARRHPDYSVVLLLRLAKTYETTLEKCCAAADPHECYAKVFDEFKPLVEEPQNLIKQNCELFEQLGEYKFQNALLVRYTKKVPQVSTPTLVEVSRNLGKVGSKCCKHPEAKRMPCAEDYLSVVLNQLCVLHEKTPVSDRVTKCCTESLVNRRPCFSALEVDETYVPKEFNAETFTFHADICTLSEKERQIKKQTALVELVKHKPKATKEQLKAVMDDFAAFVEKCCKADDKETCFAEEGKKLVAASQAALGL
# Experiment: Binding affinity to human serum albumin assessed as dissociation constant and measured after 5 mins by MST assay
# Details: not given
row,Kd [µM],Molecule
1,8,CC(=O)N[C@H](CCCCNC(=O)CCCc1ccc(I)cc1)C(=O)O
2,2.6,[N-]=[N+]=Nc1ccc(C(=O)N[C@H](CCCCNC(=O)CCCc2ccc(I)cc2)C(=O)O)cc1

# Biological target: T1, Albumin
# Experiment: Binding affinity to human serum albumin assessed as dissociation constant by isothermal titration calorimetry
# Details: not given
row,Kd [µM],Molecule
1,3.2,CC(=O)N[C@H](CCCCNC(=O)CCCc1ccc(I)cc1)C(=O)O
2,9,CC(=O)N[C@@H](CCCCNC(=O)CCCc1ccc(I)cc1)C(=O)O

# Biological target: T1, Albumin
# Experiment: Binding affinity to human serum albumin assessed as dissociation constant using N-alpha-(6-FAM)-N-epsilon-(4-Iodophenylbutanoyl)-D-lysine as substrate and measured after 5 mins by fluorescence based competition assay
# Details: not given
row,Kd [µM],Molecule
1,0.23,O=C(CCCc1ccc(I)cc1)NCCCC[C@@H](NC(=O)c1ccc(C(=O)O)c(-c2c3ccc(=O)cc-3oc3cc(O)ccc23)c1)C(=O)O

# Biological target: T1, Albumin
# Experiment: Binding affinity to human serum albumin assessed as dissociation constant and measured after 5 mins by fluorescence based competition assay
# Details: not given
row,Molecule,Kd [µM]
1,CC(=O)N[C@@H](CCCCNC(=O)CCCc1ccc(I)cc1)C(N)=O,70
2,[N-]=[N+]=Nc1ccc(C(=O)N[C@@H](CCCCNC(=O)CCCc2ccc(C(F)(F)F)cc2)C(=O)O)cc1,4.1
3,NC(=O)[C@H](CC(=O)O)NC(=O)CCCc1ccc(I)cc1,100
4,O=C(O)CN1CCN(CC(=O)O)CCN(C(CCC(=O)N[C@@H](CCCCNC(=O)CCCc2ccc(I)cc2)C(=O)O)C(=O)O)CC1 (stereo not given in full),8
5,[N-]=[N+]=Nc1ccc(C(=O)N[C@@H](CCCCNC(=O)CCCc2ccc(I)cc2)C(=O)O)cc1,0.36
6,CC(=O)N[C@@H](CCCCNC(=O)CCCc1ccc(I)cc1)C(=O)O,3.2
7,[N-]=[N+]=Nc1ccc(C(=O)N[C@@H](CCCCNC(=O)CCCc2ccc(Cl)cc2)C(=O)O)cc1,3.5
8,[N-]=[N+]=NCCCCC(=O)N[C@@H](CCCCNC(=O)CCCc1ccc(I)cc1)C(=O)O,6
9,[N-]=[N+]=Nc1ccc(C(=O)N[C@@H](CCCCNC(=O)CCCc2ccc(F)cc2)C(=O)O)cc1,26
10,[N-]=[N+]=Nc1ccc(C(=O)N[C@H](CCCCNC(=O)CCCc2ccc(I)cc2)C(=O)O)cc1,1.2
11,[N-]=[N+]=Nc1ccc(C(=O)N[C@@H](CCCCNC(=O)CCCc2ccc(Br)cc2)C(=O)O)cc1,2
12,C#CCCC(=O)N[C@H](CCCCNC(=O)CCCc1ccc(I)cc1)C(=O)O,7.3

# Second part, the molecule after the results:
row,Kd [µM],Molecule
1,0.34,C#Cc1ccc(C(=O)N[C@@H](CCCCNC(=O)CCCc2ccc(I)cc2)C(=O)O)cc1
2,110,COC(=O)[C@H](CCCCNC(=O)CCCc1ccc(I)cc1)NC(C)=O
3,8,[N-]=[N+]=NCCCCC(=O)N[C@H](CCCCNC(=O)CCCc1ccc(I)cc1)C(=O)O
4,4,O=C(CCCc1ccc(I)cc1)NCCCC[C@H](C(=O)O)n1cc(-c2ccccc2)nn1
5,3,Cc1ccc(CCCC(=O)NCCCC[C@H](NC(=O)c2ccc(N=[N+]=[N-])cc2)C(=O)O)cc1
6,36,[N-]=[N+]=Nc1ccc(C(=O)N[C@@H](CCCCNC(=O)CCCc2ccccc2)C(=O)O)cc1
7,7,CC(=O)N[C@H](CCCCNC(=O)CCCc1ccc(I)cc1)C(=O)O
8,4,CC(C)Cc1ccc(C(C)C(=O)NCCCC[C@H](NC(=O)c2ccc(N=[N+]=[N-])cc2)C(=O)O)cc1 (stereo not given in full)
9,80,NC(=O)[C@H](CCC(=O)O)NC(=O)CCCc1ccc(I)cc1

# From ChEMBL document CHEMBL5042503, “"Clickable" Albumin Binders for Modulating the Tumor Uptake of Targeted Radiopharmaceuticals” (J Med Chem, 2022)
